The values below are quoted from earlier work in patent US20100215723A1, “Wound Dressing with Antimicrobial Gauze and Bonding Agent” (priority 2009, published 2010).

For one data set, the system named is aspergillus niger. As to conditions: stated as known.
A further data set deals with pseudomonas aeruginosa. As to conditions: stated as known.

In the case of Polyhexamethylene biguanide [PHMB], the “indicative MIC value” is recorded as 750 ppm with aspergillus niger and 100 ppm with pseudomonas aeruginosa.
